Experimental data reported in patent publication US10918625B2, “Use of sesquiterpene derivative” (KOOKMIN UNIVERSITY INDUSTRY ACADEMY COOPERATION FOUNDATION, priority 2016, dated 2021).
Values belong to the compound of their own block, whether it stands above or below them.

Tests used:
Wnt/β-catenin pathway [1] = assay: Wnt/β-catenin pathway inhibitory activity: cytoplasmic β-catenin by western blot in Wnt3a-CM treated HEK293 cells; format: cell-based, human; details: Wnt3a-CM, 15 hours
Method: HEK293 cells (human embryonic kidney cells) and Wnt3a-secreting L cells were obtained from the ATCC (American Type Culture Collection, USA) and were cultured in DMEM (Dulbecco's modified Eagle's medium) supplemented with 10% FBS (fetal bovine serum), 120 μg/mL penicillin and 200 μg/mL streptomycin.
Wnt3a-CM (Wnt3a-conditioned medium) was prepared by culturing Wnt3a-secreting L cells in DMEM supplemented with 10% [v/v] FBS (fetal bovine serum) for 4 days and recovering the DMEM medium and sterilizing by filtering through a 0.22-μm filter. Then, after adding a fresh DMEM (supplemented with 10% [v/v] FBS) medium to the cells and culturing for 3 days, the medium was recovered by the same method and then combined with the previously prepared Wnt3a-CM.
(§1) After treating HEK293 cells with the Wnt3a-CM, the compound of Preparation Example 30 or the compound of Preparation Example 31 (10, 20 or 40 μM) for 15 hours and extracting cytoplasmic proteins from the cells, the amount of β-catenin regulating the CRT (β-catenin response transcription) of the Wnt/β-catenin pathway in the cells was investigated by western blot using a β-catenin antibody (BD Transduction Laboratories, USA) and the ECL system (Santa Cruz Biotechnology).
as §1, with “The Wnt/β-catenin pathway inhibitory activity of the Preparation Example 32 compound was evaluated in the same manner as in Example <1-1>. Briefly, after” for “After”, “Wnt3a-CM” for “Wnt3a-CM, the compound of Preparation Example 30”, “32 (10 or” for “31 (10,”, “20” for “20 or 40”

[2] = In vivo PK after oral administration: concentration in blood plasma and eye (LC-MS/MS); parameters: species or system ICR mouse; details: 10 mg/kg oral gavage, plasma and eye at 0.5 hour and 2 hours
Method: Male ICR mice (8 weeks, 30-35 g) were purchased from Samtako Co. (Osan, Korea). The test animals were acclimatized for a week under the following conditions: temperature 23±2° C., relative humidity 55±10%, illumination intensity 150-300 lux, ventilation frequency 15-20 times/h, illumination cycle 12 h (07:00-19:00). All the animal experiments were approved by the Animal Care and Use Committee of Kyungpook National University (Study No. 2016-0043).
The mice were fasted for 12 hours before drug administration. Feed and water were supplied ad libitum. The compound of Preparation Example 33 was dissolved in DW:PEG 400 (=60:40 (v/v)) and administered by oral gavage at a dose of 10 mg/kg.
0.5 hour and 2 hours after the oral administration, blood samples were taken from the abdominal artery. […] of a plasma sample obtained after centrifuging the blood sample at 13,000 rpm for 5 minutes was stored at −80° C. until use for analysis. […]
In order to investigate the distribution of the compound of the present disclosure in the target tissue, the compound was orally administered at a dose of 10 mg/kg and the concentration of the compound in the blood plasma and eye was measured. The sampling times were determined as 0.5 hour and 2 hours based on the peak plasma concentration and the distribution phase. […]

[3] = test system: macular edema-induced mouse model; assay: Inhibition of vascular leakage in the eye, intravitreal administration, laser-induced macular edema mouse model (FA and OCT); format: in vivo, C57BL/6 mouse; details: 100 ng/0.5 μL in DMSO intravitreal 24 hours after laser, read one week later, vs DMSO control group
Method: Macular edema was induced in a 10-week-old C57BL/6 mouse by irradiating a laser. After anesthetizing the mouse with ketamine (70 mg/kg) and xylazine (30 mg/kg), the pupil was dilated with 1% tropicamide. Hydroxypropylmethyl cellulose was dropped onto the eye and a microscope cover glass was used as a contact lens. Then, five laser burns were made in the space between the blood vessels around the optic disc (Zeiss 1149-630, laser power 180 mW, duration 0.1 s, spot size 50 μm). In this state, the blood vessel size and permeability were investigated by fluorescein angiography (FA) and optical coherence tomography (OCT). 24 hours after the laser irradiation, 0.5 μL of DMSO (dimethyl sulfoxide) was injected to a control group and 100 ng/0.5 μL of the Preparation Example 33 compound dissolved in DMSO was injected to a test group, into the vitreous cavity of the mouse. One week later, fluorescein angiography and optical coherence tomography were conducted again.

C57BL/6J mice = assay: Tissue toxicity, long-term (8 weeks) administration: blood GPT, BUN, liver and kidney sections; format: in vivo, C57BL/6J mouse; details: different doses for 8 weeks
Method: A long-term toxicity test was conducted by administering the compound of Preparation Example 33 at different doses to C57BL/6J mice (10 mice per group) for 8 weeks. In order to investigate the effect on different organs (tissues) of the animals, blood was taken from the animals of the test group to which the compound of Preparation Example 33 was administered and the control group to which only PEG 400:Tween 80:ethanol (8:1:1, v:v:v) was administered 8 weeks later and the level of GPT (glutamate-pyruvate transferase) and BUN (blood urea nitrogen) in the blood was measured using Select E (Vital Scientific NV, Netherlands).

Wnt/β-catenin pathway [4] = assay: Wnt/β-catenin pathway inhibitory activity: cytoplasmic β-catenin by western blot in Wnt3a-CM treated ARPE-19 cells; format: cell-based; details: ARPE-19 human retinal epithelial cells, Wnt3a-CM, compound 3 or 6 μM, 24 hours
Method: ARPE-19 cells (human retinal epithelial cells) and Wnt3a-secreting L cells were obtained from the ATCC (American Type Culture Collection, USA) and were cultured in DMEM (Dulbecco's modified Eagle's medium) supplemented with 10% FBS, 120 μg/mL penicillin and 200 μg/mL streptomycin. Wnt3a-CM (Wnt3a-conditioned medium) was prepared by culturing Wnt3a-secreting L cells in DMEM supplemented with 10% [v/v] FBS (fetal bovine serum) for 4 days and recovering the DMEM medium and sterilizing by filtering through a 0.22-μm filter. Then, after adding fresh DMEM (supplemented with 10% [v/v] FBS) to the cells and culturing for 3 days, Wnt3a-CM was recovered.
as §1, with “ARPE-19” for “HEK293”, “33” for “30”, “34 (3” for “31 (10, 20”, “6” for “40”, “24” for “15”

[5] = test system: macular edema-induced mouse model; assay: Inhibition of vascular leakage in the retina, intraperitoneal administration, laser-induced macular edema mouse model (OCT); format: in vivo, C57BL/6 mouse; details: 1 mg/kg intraperitoneal every day for 7 days, OCT on day 6, vs vehicle
Method: After inducing macular edema in a C57BL/6 mouse and intraperitoneally administering the compound of Preparation Example 33, vascular leakage in the retina was investigated.
Briefly, after anesthetizing an 8-to-12-week-old C57BL/6 mouse with Zoletil (40 mg/kg) and xylazine (5 mg/kg), the pupil was dilated with 1% tropicamide. Hydroxypropylmethyl cellulose was dropped onto the eye and a microscope cover glass was used as a contact lens. Then, 3-5 laser burns were made in the space between the retinal blood vessels around the optic disc (Zeiss 1149-630, laser power 200 mW, duration 0.05 s, spot size 50 μm).
After the laser irradiation, 10 mL/kg of distilled water as a vehicle was intraperitoneally administered to a control group (FIG. 5, A) and 1 mg/kg of the compound of Preparation Example 33 (dissolved distilled water) was intraperitoneally administered to a test group (FIG. 5, B) every day for 7 days. On day 6, 10% sodium fluorescein was intraperitoneally administered and optical coherence tomography was conducted.

SMILES: C=C1CCCC2C1(C)CCC(C)C2(C)CC1=C2OC(C)(C)N=C2C=C(OC)C1=O [Preparation Example 30, 18-methoxy-22,22-dimethyl-16-[{(5R,8S,9R,10S)-5,8,9-trimethyl-4-methylenedecahydronaphthalen-9-yl}methyl]benzo[d]-oxazol-17(2H)-one]
level of β-catenin in the cytoplasm (western blot) (Wnt/β-catenin pathway [1]; compound 10, 20 or 40 μM): decreased level of β-catenin

SMILES: C=C1CCCC2C1(C)CCC(C)C2(C)Cc1c(O)c(OC)cc2nc(C)oc12 [Preparation Example 31, 18-methoxy-22-methyl-16-[{(5S,8S,9R,10S)-5,8,9-trimethyl-4-methylenedecahydronaphthalen-9-yl}methyl]benzo[d]-oxazol-17-ol]
level of β-catenin in the cytoplasm (western blot) (Wnt/β-catenin pathway [1]; compound 10, 20 or 40 μM): decreased level of β-catenin

SMILES: C=C1CCCC2C1(C)CCC(C)C2(C)CC1=C(O)C(=O)C=C(NCCc2ccccc2)C1=O (stereo not drawn) [Preparation Example 32]
level of β-catenin in the cytoplasm (western blot) (Wnt/β-catenin pathway [1]; compound 10 or 20 μM): decreased level of β-catenin

distribution in the eye after oral administration [2]: highly targeted in the eye
permeability for the target tissue (eye) [2]: high permeability
SMILES: C=C1CCC[C@H]2[C@](C)(CC3=C(O)C(=O)C=C(OC)C3=O)[C@@H](C)CC[C@]12C [Preparation Example 33, 3-[[(1R,2S,4aS,8aS)-1,2,4a-trimethyl-5-methylidene-3,4,6,7,8,8a-hexahydro-2H-naphthalen-1-yl]methyl]-2-hydroxy-5-methoxycyclohexa-2,5-diene-1,4-dione]
vascular leakage (fluorescein angiography and optical coherence tomography) [3]: distinctly decreased vascular leakage
liver and kidney tissue sections under optical microscope (C57BL/6J mice): no special abnormality
BUN (blood urea nitrogen) in the blood, control group vs test group (C57BL/6J mice; related with kidney toxicity): no significant difference
GPT (glutamate-pyruvate transferase) in the blood, control group vs test group (C57BL/6J mice; related with liver toxicity): no significant difference
level of β-catenin in the cytoplasm (western blot) (Wnt/β-catenin pathway [4]): decreased level of β-catenin
vascular leakage (optical coherence tomography) [5]: inhibited vascular leakage

SMILES: C=C1CCC[C@@H]2[C@@](C)(CC3=C(O)C(=O)C=C(OCC)C3=O)[C@H](C)CC[C@@]12C [Preparation Example 34, 3-[[(1S,2R,4aR,8aR)-1,2,4a-trimethyl-5-methylidene-3,4,6,7,8,8a-hexahydro-2H-naphthalen-1-yl]methyl]-5-ethoxy-2-hydroxycyclohexa-2,5-diene-1,4-dione]
level of β-catenin in the cytoplasm (western blot) (Wnt/β-catenin pathway [4]): decreased level of β-catenin
